From patent publication US20190201409A1, “COMBINATION THERAPY” (MEI Pharma, Inc., priority 2016, published 2019)

Legend:
Assay type in all cases: cell-based
DOHH-2 cells = experiment: ATPLite growth inhibition assay, single agent and combination (Loewe synergy); conditions: single agent
Method: (§1) The activity of compound I was examined in combination with PCI-32765 (ibrutinib), ABT-199 (venetoclax) and EPZ-6438 (Tazemetostat) across a panel of 8 DLBCL cell lines indicated below (7 GCB subtype cell lines and 1 ABC subtype cell line).
(§2) The effect of test compounds and combinations on growth inhibition as a measure of cell viability was determined in an ATPLite assay. The endpoint readout of the assay was based upon quantitation of ATP as an indicator of viable cells.
(§3) Cells were thawed from a liquid nitrogen preserved state. Once cells were expanded and divided at their expected doubling times, screening begins. Cells were seeded in growth media in black 384-well tissue culture treated plates at 500 cells per well (except where noted in Analyzer). Cells were equilibrated in assay plates via centrifugation and placed in incubators attached to the Dosing Modules at 37° C. for 24 hours before treatment. […] These Tzero (T0) plates were read using ultra-sensitive luminescence on Envision Plate Readers. Treated assay plates were incubated with compound for 72 hours. All data points were collected via automated processes; quality controlled; and analyzed using Horizon Discovery proprietary software. Assay plates were accepted if they pass the following quality control standards: relative luciferase values were consistent throughout the entire experiment, Z-factor scores were greater than 0.6, untreated/vehicle controls behaved consistently on the plate.
(§4) Growth Inhibition (GI) was used as a measure of cell viability. The cell viability of vehicle was measured at the time of dosing (T0) and after seventy two hours (T72). A GI reading of 0% represented no growth inhibition—cells treated with compound and T72 or T120 vehicle signals were matched. A GI 100% represented complete growth inhibition—cells treated by compound and To vehicle signals were matched. […] A GI 200% represents complete death of all cells in the culture well. Compounds reaching an activity plateau of GI 200% were considered cytotoxic. GI was calculated by applying the following test and equation: […]
(§5) where T is the signal measure for a test article, V is the vehicle-treated control measure, and V0 is the vehicle control measure at time zero. This formula is derived from the Growth Inhibition calculation used in the National Cancer Institute's[sic] NCl[sic]−60 high throughput screen.
(§6) Loewe Additivity model was used for measuring the effects of drug combinations. The Loewe additivity model is dose-based and applies only to the activity levels achieved by the single agents. Loewe Volume was used to assess the overall magnitude of the combination interaction in excess of the Loewe additivity model. Loewe Volume is particularly useful when distinguishing synergistic increases in a phenotypic activity (positive Loewe Volume) versus synergistic antagonisms (negative Loewe Volume). When antagonisms are observed, the Loewe Volume should be assessed to examine if there is any correlation between antagonism and a particular drug target-activity or cellular genotype. This model defines additivity as a non-synergistic combination interaction where the combination dose matrix surface should be indistinguishable from either drug crossed with itself. The calculation for additivity is:
(§7) To measure combination effects in excess of Loewe additivity, a scalar measure to characterize the strength of synergistic interaction was devised and termed the Synergy Score. The Synergy Score was calculated as:
(§8) Synergy Score=log fX log fYΣ max(0,Idata)(Idata−ILoewe)
(§9) The fractional inhibition for each component agent and combination point in the matrix was calculated relative to the median of all vehicle-treated control wells. The Synergy Score equation integrates the experimentally-observed activity volume at each point in the matrix in excess of a model surface numerically derived from the activity of the component agents using the Loewe model for additivity. […]

NU-DHL-1 cells = experiment: as above; conditions: single agent
Method: as §1, §2, §3, §4, §5, §6, §7, §8, §9

OCI-Ly19 cells = experiment: as above; conditions: single agent
Method: as §1, §2, §3, §4, §5, §6, §7, §8, §9

OCI-Ly3 cells = experiment: as above; conditions: single agent
Method: as §1, §2, §3, §4, §5, §6, §7, §8, §9

Pfeiffer cells = experiment: as above; conditions: single agent
Method: as §1, §2, §3, §4, §5, §6, §7, §8, §9

SU-DHL-10 cells = experiment: as above; conditions: single agent; printed SU-DIAL-10
Method: as §1, §2, §3, §4, §5, §6, §7, §8, §9

[1] = test system: panel of 8 DLBCL cell lines; experiment: ATPLite growth inhibition assay across the cell line panel; conditions: single agent, FIG. 9
Method: as §1, §2
Cells were thawed from a liquid nitrogen preserved state. Once cells were expanded and divided at their expected doubling times, screening begins. Cells were seeded in growth media in black 384-well tissue culture treated plates at 500 cells per well (except where noted in Analyzer). […] These Tzero (T0) plates were read using ultra-sensitive luminescence on Envision Plate Readers. […] All data points were collected via automated processes; quality controlled; and analyzed using Horizon Discovery proprietary software. […]
Growth Inhibition (GI) was used as a measure of cell viability. The cell viability of vehicle was measured at the time of dosing (T0) and after seventy two hours (T72). A GI reading of 0% represented no growth inhibition—cells treated with compound and T72 or T120 vehicle signals were matched. […] GI was calculated by applying the following test and equation: […]

## CN1CCC(c2ccccc2CC(C)(C)Nc2nc(N3CCOCC3)nc(-n3c(C(F)F)nc4ccccc43)n2)CC1 [Compound I, 4-(2-(difluoromethyl)-1H-benzo[d]imidazol-1-yl)-N-(2-methyl-1-(2-(1-methylpiperidin-4-yl)phenyl)propan-2-yl)-6-morpholino-1,3,5-triazin-2-amine]
DOHH-2 cells
  kind of growth inhibition effect (FIG. 10): cytotoxic effects
NU-DHL-1 cells
  kind of growth inhibition effect (FIG. 10): sub-cytostatic effects
OCI-Ly19 cells
  kind of growth inhibition effect (FIG. 10): cytotoxic effects
OCI-Ly3 cells
  kind of growth inhibition effect (FIG. 10): cytotoxic effects
Pfeiffer cells
  kind of growth inhibition effect (FIG. 10): sub-cytostatic effects
SU-DHL-10 cells
  kind of growth inhibition effect (FIG. 10): sub-cytostatic effects
[1]; all cell lines
  growth inhibition levels: > 50%
[1]; median across cell line panel
  GI50: 1730 nM
